Read-outs that look alike come from different tables or passages of the source.
Experiments:
Format in all cases: physicochemical
[1] = pKA value by titration with hydrochloric acid; details: for pKa: aqueous solution, aqueous solution 0.005 mol amine per liter, HCl 0.1 mol/L; for pKa / Second pKA value (in words): 20° C.; for First pKA value (in words): at relatively low temperatures (20° C.)
[2] = Acid gas loading capacity: CO2 loading and stripping experiment; details: for CO2 loading after loading / CO2 loading after stripping / Cyclic CO2 capacity: 30 wt.-% amine in water; for CO2 loading after loading: 40° C., ambient pressure, 8 L (STP)/h CO2, about 4 h; for CO2 loading after stripping: stripping at 80° C. with N2 8 L (STP)/h, 60 min; for Cyclic CO2 capacity: difference of loading after loading and after stripping; for Acid gas loading capacities (in words): CO2 and H2S, absorbents 30 wt.-% in water, compared with TBAEE and MDEA
Procedure: (§1) A loading experiment and subsequently a stripping experiment were conducted. A glass condenser, which was operated at 5° C., was attached to a glass cylinder with a thermostated jacket. Condensate obtained in the course of the experiment was returned to the glass cylinder so as to prevent distortion of the test results by partial evaporation of the absorbent.
(§2) The glass cylinder was initially charged with about 100 mL of unladen absorbent (30% by weight of amine in water). To determine the absorption capacity, at ambient pressure and 40° C., 8 L (STP)/h of CO2 or H2S were passed through the absorption liquid via a frit over a period of about 4 h. Subsequently, the loading of CO2 or H2S was determined as follows:
(§3) The determination of H2S was effected by titration with silver nitrate solution. For this purpose, the sample to be analyzed was weighed into an aqueous solution together with about 2% by weight of sodium acetate and about 3% by weight of ammonia. Subsequently, the H2S content was determined by a potentiometric turning point titration by means of silver nitrate. At the turning point, H2S is fully bound as Ag2S. The CO2 content was determined as total inorganic carbon (TOC-V Series Shimadzu).
(§4) The laden solution was stripped by heating an identical apparatus setup to 80° C., introducing the laden absorbent and stripping it by means of an N2 stream (8 L (STP)/h). After 60 min, a sample was taken and the CO2 or H2S loading of the absorbent was determined as described above.
(§5) The difference in the loading at the end of the loading experiment and the loading at the end of the stripping experiment gives the respective cyclic capacity.

[3] = Acid gas loading capacity: H2S loading and stripping experiment; details: for H2S loading after loading / H2S loading after stripping / Cyclic H2S capacity: 30 wt.-% amine in water; for H2S loading after loading: 40° C., ambient pressure, 8 L (STP)/h H2S, about 4 h; for H2S loading after stripping: stripping at 80° C. with N2 8 L (STP)/h, 60 min; for Cyclic H2S capacity: difference of loading after loading and after stripping
Procedure: as §1, §2, §3, §4, §5

[4] = Thermal stability of aqueous amine solutions with and without acid gas loading; details: 150° C., 125 h; for Ratio of Degradation Without Acid Gas Loading: closed cylinder, amine concentration by GC before and after; for Ratio of Degradation Without Acid Gas Loading / Ratio of Degradation With Acid Gas Loading: in water: MDEA 40, TBAP-MPIP 30, TBAE-MPIP 25, DEAE-EPIP 30 wt.-%; for Ratio of Degradation With Acid Gas Loading: 20 m^3 (STP)/tsolvent CO2 and 20 m^3 (STP)/tsolvent H2S
Procedure: The thermal stability of TBAP-MPIP (30 wt.-% in water) and TBAE-MPIP (25 wt.-% in water) was compared to both MDEA (40 wt.-% MDEA in water) and DEAE-EPIP (30 wt.-% DEAE-EPIP in water) with and without acid gas loading.
A cylinder (10 mL) was initially charged with the respective solution (8 mL) and the cylinder was closed. […] In the experiments conducted under acid gas loading, the acid gas loading of the solutions was 20 m^3 (STP)/tsolvent of CO2 and 20 m^3 (STP)/tsolvent of H2S. The decomposition level of the amines was calculated from the amine concentration measured by gas chromatography before and after the experiment.

[5] = Relative volatility: N2 passed through the absorbent, condensate analysed by GC and Karl Fischer titration; details: for Amine (in condensate) / Water (in condensate) / Condensate: 30 wt.-% aqueous solution, 50° C., 8 h; for Amine (in condensate) / Water (in condensate): 30 L (STP)/h N2; for Amine (in condensate): GC; for Water (in condensate): Karl Fischer titration; for Condensate: 200 mL, 30 L (STP)/h N2, condenser 5° C.; for Volatility (in words): 30 wt.-% aqueous solutions
Procedure: The volatility of amines TBAP-MPIP and TBAE-MPIP in 30 wt.-% aqueous solutions was compared to that of amines M3ETB, MDEA and TBAEPY in 30% wt.-% aqueous solutions.
A glass condenser, which was operated at 5° C., was attached to a glass cylinder with a thermostated jacket. The glass cylinder was thermostated to 50° C., and 200 mL of the absorbent were introduced for each test. Over an experimental duration of 8 h, 30 L (STP)/h of N2 were passed through the absorbent at ambient pressure. For each amine, the test was conducted three times. The condensate was analyzed by means of GC and Karl Fischer titration.

Compound | pKa ([1]; read-out: pKA 1) | pKa ([1]; read-out: pKA 2) | pKa ([1]; read-out: pKA 3) | CO2 loading after loading [2] [mol CO2/molamine] | CO2 loading after stripping [2] [mol CO2/molamine] | Cyclic CO2 capacity [2] [mol CO2/molamine] | H2S loading after loading [3] [mol H2S/molamine] | H2S loading after stripping [3] [mol H2S/molamine] | Cyclic H2S capacity [3] [mol H2S/molamine] | Ratio of Degradation Without Acid Gas Loading [4] | Ratio of Degradation With Acid Gas Loading [4] | Second pKA value (in words) [1] | First pKA value (in words) [1] | Amine (in condensate) [5] [wt %] | Water (in condensate) [5] [wt %] | Condensate [5] [mL] | Volatility (in words) [5] | Cyclic H2S capacity (in words) ([3]; 30 wt.-% in water, comparison with TBAP-MPIP and TBAE-MPIP) | Acid gas loading capacities (in words) [2] | Stability in aqueous solutions (in words) [4]
CCN(CC)CCN1CCN(CC)CC1 [DEAE-EPIP, 2-(4-ethylpiperazin-1-yl)ethyl-diethylamine, reference compound] | 10.3 | 8.61 | 6.2 | 1.48 | 0.13 | 1.35 | 0.98 | 0.31 | 0.67 | 1.00 | 0.77 | – | – | – | – | – | – | significantly lower than the capacity of both TBAP-MPIP and TBAE-MPIP | – | –
COCCOCCOCCNC(C)(C)C [M3ETB, (2-(2-(2-tert-butylaminoethoxy)ethoxy)ethyl)methyl ether, reference compound] | – | – | – | – | – | – | – | – | – | – | – | – | – | 0.7 | 99.2 | 30.1 | – | – | – | –
CC(C)(C)NCCOCCO [TBAEE, 2-(2-tert-butylaminoethoxy)ethanol, reference compound] | – | – | – | 0.97 | 0.24 | 0.73 | – | – | – | – | – | – | – | – | – | – | – | – | – | –
CC(C)(C)NCCN1CCCC1=O [TBAEPY, 1-[2-(tert-butylamino)ethyl]pyrrolidin-2-one, reference compound] | – | – | – | – | – | – | – | – | – | – | – | – | – | 0.2 | 99.5 | 28.8 | – | – | – | –

More lines, main results first:

pKa ([1]; read-out: pKA 1) | pKa ([1]; read-out: pKA 2) | pKa ([1]; read-out: pKA 3) | CO2 loading after loading [2] [mol CO2/molamine] | CO2 loading after stripping [2] [mol CO2/molamine] | Cyclic CO2 capacity [2] [mol CO2/molamine] | H2S loading after loading [3] [mol H2S/molamine] | H2S loading after stripping [3] [mol H2S/molamine] | Cyclic H2S capacity [3] [mol H2S/molamine] | Ratio of Degradation Without Acid Gas Loading [4] | Ratio of Degradation With Acid Gas Loading [4] | Second pKA value (in words) [1] | First pKA value (in words) [1] | Amine (in condensate) [5] [wt %] | Water (in condensate) [5] [wt %] | Condensate [5] [mL] | Volatility (in words) [5] | Compound | Cyclic H2S capacity (in words) ([3]; 30 wt.-% in water, comparison with TBAP-MPIP and TBAE-MPIP) | Acid gas loading capacities (in words) [2] | Stability in aqueous solutions (in words) [4]
10.7 | 7.68 | 5.8 | 1.41 | 0.70 | 0.71 | 1.48 | 0.33 | 1.15 | 0.99 | 0.91 | close to the pKa value of MDEA | high first pKA values | 0.3 | 99.7 | 30.3 | suitably low volatility | CN1CCN(CCCNC(C)(C)C)CC1 [TBAP-MPIP, 3-(4-methylpiperazin-1-yl)propyl-tert-butylamine] | – | significantly higher acid gas loading capacities than absorbents based on TBAEE and MDEA | comparable to MDEA, and higher than DEAE-EPIP
10 | 8.82 | 5.47 | 1.46 | 0.22 | 1.24 | 1.62 | 0.35 | 1.27 | 1.00 | 0.88 | close to the pKa value of MDEA | high first pKA values | 0.7 | 99.3 | 29.28 | suitably low volatility | CN1CCN(CCNC(C)(C)C)CC1 [TBAE-MPIP, 2-(4-methylpiperazin-1-yl)ethyl-tert-butylamine] | – | significantly higher acid gas loading capacities than absorbents based on TBAEE and MDEA | comparable to MDEA, and higher than DEAE-EPIP

Source: patent US12138583B2, “Process for removal of acid gases from a fluid stream with a liquid absorbent comprising a piperazine ring” (BASF SE, priority 2019, dated 2024)
